Legend:
[1] = target: T1, human MER (528-end) (Homo sapiens, UniProt Q12866); assay: HTRF kinase activity biochemical assay, MER; details: 10 μM ATP, 30 minutes pre-incubation; read-out: HTRF MERTK IC50
T1 construct: human MER (528-end); purchased Camnabio, Japan
T1 sequence (Q12866 528-999 limits assumed): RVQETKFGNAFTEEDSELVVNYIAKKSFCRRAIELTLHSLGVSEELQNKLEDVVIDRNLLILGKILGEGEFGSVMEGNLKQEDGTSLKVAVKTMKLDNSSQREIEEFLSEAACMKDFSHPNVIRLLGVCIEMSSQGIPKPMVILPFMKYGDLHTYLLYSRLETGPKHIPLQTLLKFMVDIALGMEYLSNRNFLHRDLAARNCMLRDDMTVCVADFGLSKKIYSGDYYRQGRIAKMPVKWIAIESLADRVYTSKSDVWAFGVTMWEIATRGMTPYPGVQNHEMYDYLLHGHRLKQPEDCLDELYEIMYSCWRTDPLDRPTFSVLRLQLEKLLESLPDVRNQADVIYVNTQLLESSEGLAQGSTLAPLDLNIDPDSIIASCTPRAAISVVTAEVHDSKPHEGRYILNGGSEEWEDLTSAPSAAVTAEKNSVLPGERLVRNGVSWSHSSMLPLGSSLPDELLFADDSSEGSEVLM

[2] = target: T2, human AXL (473-end) (Homo sapiens, UniProt P30530); assay: HTRF kinase activity biochemical assay, AXL; details: 10 μM ATP, 30 minutes pre-incubation
T2 construct: human AXL (473-end); purchased SignalChem, Canada
T2 sequence (P30530 473-894 limits assumed): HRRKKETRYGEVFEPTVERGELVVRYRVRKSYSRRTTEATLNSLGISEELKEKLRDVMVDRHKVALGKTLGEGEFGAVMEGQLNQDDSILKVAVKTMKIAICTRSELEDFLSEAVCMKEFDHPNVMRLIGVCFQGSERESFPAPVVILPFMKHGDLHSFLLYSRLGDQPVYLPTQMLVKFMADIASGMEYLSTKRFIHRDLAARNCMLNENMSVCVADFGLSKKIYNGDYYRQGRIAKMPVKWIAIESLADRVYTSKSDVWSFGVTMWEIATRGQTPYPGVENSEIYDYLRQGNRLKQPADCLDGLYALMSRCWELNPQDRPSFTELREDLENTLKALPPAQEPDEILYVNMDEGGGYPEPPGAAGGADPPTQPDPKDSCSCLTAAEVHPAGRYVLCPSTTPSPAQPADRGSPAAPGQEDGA

[3] = target: T3, human TYRO3 (455-end) (Homo sapiens, UniProt Q06418); assay: HTRF kinase activity biochemical assay, TYRO3; details: 10 μM ATP, 30 minutes pre-incubation; read-out: HTRF TYRO IC50
T3 construct: TYRO3 (455-end); purchased SignalChem, Canada
T3 sequence (Q06418 455-890 limits assumed): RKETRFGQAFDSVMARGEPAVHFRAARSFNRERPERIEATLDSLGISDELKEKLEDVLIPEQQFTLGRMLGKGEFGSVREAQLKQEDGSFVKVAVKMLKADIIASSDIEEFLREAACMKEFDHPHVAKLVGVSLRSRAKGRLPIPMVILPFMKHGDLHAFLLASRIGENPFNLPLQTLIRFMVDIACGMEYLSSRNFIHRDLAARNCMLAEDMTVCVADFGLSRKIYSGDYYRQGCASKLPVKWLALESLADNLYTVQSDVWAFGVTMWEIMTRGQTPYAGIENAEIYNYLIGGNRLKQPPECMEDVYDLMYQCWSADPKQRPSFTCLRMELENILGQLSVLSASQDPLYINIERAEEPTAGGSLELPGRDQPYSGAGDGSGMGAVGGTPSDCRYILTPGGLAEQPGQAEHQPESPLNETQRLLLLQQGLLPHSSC

Structure (SMILES) | IC50 [1] | IC50 [2] | IC50 [3]
CC1(C)CN(C2CCN(CCO)CC2)c2ccc(-c3ccc(CO[C@H]4CCC[C@@H]4NC(=O)c4nc(-c5ccc(F)nc5)cnc4N)cc3)cc21 [Example 41, 3-amino-6-(6-fluoropyridin-3-yl)-N-{(1S,2S)-2-[(4-{1-[1-(2-hydroxyethyl)piperidin-4-yl]-3,3-dimethyl-2,3-dihydro-1H-indol-5-yl}phenyl)methoxy]cyclopentyl}pyrazine-2-carboxamide] | < 10 nM | 10 to 100 nM | 100 to 1000 nM
Cn1cc(-c2cnc(N)c(C(=O)N[C@H]3CCC[C@@H]3OCc3ccc(-c4ccc5c(c4)CC(F)(F)[C@H]5N4CCN(CCO)CC4)cc3)c2)cn1 [Example 66, 2-amino-N-{(1S,2S)-2-[(4-{(1S)-2,2-difluoro-1-[4-(2-hydroxyethyl)piperazin-1-yl]-2,3-dihydro-1H-inden-5-yl}phenyl)methoxy]cyclopentyl}-5-(1-methyl-1H-pyrazol-4-yl)pyridine-3-carboxamide] | 10 to 100 nM | 10 to 100 nM | > 1000 nM
Cn1cc(-c2cnc(N)c(C(=O)N[C@H]3CCC[C@@H]3OCc3ccc(-c4cccc5cc[nH]c45)cc3)c2)cn1 [Example 29, 2-amino-N-[(1S,2S)-2-{[4-(1H-indol-7-yl)phenyl]methoxy}cyclopentyl]-5-(1-methyl-1H-pyrazol-4-yl)pyridine-3-carboxamide] | 10 to 100 nM | 100 to 1000 nM | > 1000 nM
Cc1[nH]c2ccc(-c3ccc(CO[C@H]4CCC[C@@H]4NC(=O)c4cc(-c5cnn(C)c5)cnc4N)cc3)cc2c1C [Example 55, 2-amino-N-[(1S,2S)-2-{[4-(2,3-dimethyl-1H-indol-5-yl)phenyl]methoxy}cyclopentyl]-5-(1-methyl-1H-pyrazol-4-yl)pyridine-3-carboxamide] | 10 to 100 nM | 10 to 100 nM | > 1000 nM
CN1CCC(N2CC(C)(C)c3cc(-c4ccc(CO[C@H]5CCC[C@@H]5NC(=O)c5cc(-c6cnn(C)c6)cnc5N)cc4)ccc32)CC1 [Example 12, 2-amino-N-[(1S,2S)-2-({4-[3,3-dimethyl-1-(1-methylpiperidin-4-yl)-2,3-dihydro-1H-indol-5-yl]phenyl}methoxy)cyclopentyl]-5-(1-methyl-1H-pyrazol-4-yl)pyridine-3-carboxamide] | < 10 nM | < 10 nM | 10 to 100 nM
Cn1cc(-c2cnc(N)c(C(=O)N[C@H]3CCC[C@@H]3OCc3ccc(-c4ccc5c(ccn5C5CCN(C(=O)OC(C)(C)C)CC5)c4)cc3)c2)cn1 [Example 4, tert-butyl 4-{5-[4-({[(1S,2S)-2-{[2-amino-5-(1-methyl-1H-pyrazol-4-yl)pyridine-3-carbonyl]amino}cyclopentyl]oxy}methyl)phenyl]-1H-indol-1-yl}piperidine-1-carboxylate] | > 1000 nM | 100 to 1000 nM | > 1000 nM
CC(C)n1ccc2cc(-c3ccc(CO[C@H]4CCC[C@@H]4NC(=O)c4cc(-c5cnn(C)c5)cnc4N)cc3)ccc21 [Example 60, 2-amino-5-(1-methyl-1H-pyrazol-4-yl)-N-[(1S,2S)-2-({4-[1-(propan-2-yl)-1H-indol-5-yl]phenyl}methoxy)cyclopentyl]pyridine-3-carboxamide] | < 10 nM | 10 to 100 nM | > 1000 nM
Cn1cc(-c2cnc(N)c(C(=O)N[C@H]3COC[C@@H]3OCc3ccc(-c4ccc5c(c4)CCC5N4CCN(CCO)CC4)cc3)c2)cn1 (stereo partly drawn) [Example 18, 2-amino-N-{(3S,4R)-4-[(4-{1-[4-(2-hydroxyethyl)piperazin-1-yl]-2,3-dihydro-1H-inden-5-yl}phenyl)methoxy]oxolan-3-yl}-5-(1-methyl-1H-pyrazol-4-yl)pyridine-3-carboxamide] | < 10 nM | 10 to 100 nM | 100 to 1000 nM
Cn1cc(-c2cnc(N)c(C(=O)N[C@H]3CCC[C@@H]3OCc3ccc(-c4ccc5c(c4)C(C)(C)CN5C4CCN(CCO)CC4)cc3)c2)cn1 [Example 13, 2-amino-N-{(1S,2S)-2-[(4-{1-[1-(2-hydroxyethyl)piperidin-4-yl]-3,3-dimethyl-2,3-dihydro-1H-indol-5-yl}phenyl)methoxy]cyclopentyl}-5-(1-methyl-1H-pyrazol-4-yl)pyridine-3-carboxamide] | < 10 nM | < 10 nM | 10 to 100 nM
Cn1cc(-c2cnc(N)c(C(=O)N[C@H]3CCC[C@@H]3OCc3ccc(-c4ccc5c(c4)C4(CC4)CN(C4CCN(CCO)CC4)C5)cc3)c2)cn1 [Example 72, 2-amino-N-{(1S,2S)-2-[(4-{2′-[1-(2-hydroxyethyl)piperidin-4-yl]-2′,3′-dihydro-1′H-spiro[cyclopropane-1,4′-isoquinolin]-6′-yl}phenyl)methoxy]cyclopentyl}-5-(1-methyl-1H-pyrazol-4-yl)pyridine-3-carboxamide] | 100 to 1000 nM | > 1000 nM | > 1000 nM

Further lines, results first:

IC50 [1] | IC50 [2] | IC50 [3] | Structure (SMILES)
< 10 nM | < 10 nM | 100 to 1000 nM | N#Cc1ccc(-c2cnc(N)c(C(=O)N[C@H]3CCC[C@@H]3OCc3ccc(-c4ccc5c(c4)CC[C@@H]5N4CCN(CCO)CC4)cc3)c2)cn1 [Example 153, 6-amino-6′-cyano-N-{(1S,2S)-2-[(4-{(1S)-1-[4-(2-hydroxyethyl)piperazin-1-yl]-2,3-dihydro-1H-inden-5-yl}phenyl)methoxy]cyclopentyl}[3,3′-bipyridine]-5-carboxamide]
< 10 nM | < 10 nM | > 1000 nM | Cn1cc(-c2cnc(N)c(C(=O)N[C@H]3CCC[C@@H]3OCc3ccc(-c4ccc5c(c4)CCC5N4CCN(CC5COC(C)(C)O5)CC4)cc3)c2)cn1 (stereo partly drawn) [Example 79, 2-amino-N-[(1S,2S)-2-{[4-(1-{4-[(2,2-dimethyl-1,3-dioxolan-4-yl)methyl]piperazin-1-yl}-2,3-dihydro-1H-inden-5-yl)phenyl]methoxy}cyclopentyl]-5-(1-methyl-1H-pyrazol-4-yl)pyridine-3-carboxamide]
< 10 nM | < 10 nM | 10 to 100 nM | Cn1cc(-c2cnc(N)c(C(=O)N[C@H]3CCC[C@@H]3OCc3ccc(-c4cnc5c(c4)C(C)(C)CCN5C4CCN(CCO)CC4)cc3)c2)cn1 [Example 158, 2-amino-N-{(1S,2S)-2-[(4-{8-[1-(2-hydroxyethyl)piperidin-4-yl]-5,5-dimethyl-5,6,7,8-tetrahydro-1,8-naphthyridin-3-yl}phenyl)methoxy]cyclopentyl}-5-(1-methyl-1H-pyrazol-4-yl)pyridine-3-carboxamide]
< 10 nM | < 10 nM | 100 to 1000 nM | Cn1cc(-c2cnc(N)c(C(=O)N[C@H]3CCC[C@@H]3OCc3ccc(-c4ccc5c(c4)CC[C@@H]5N4CCN(C(CO)CO)CC4)cc3)c2)cn1 [Example 128, 2-amino-N-{(1S,2S)-2-[(4-{(1S)-1-[4-(1,3-dihydroxypropan-2-yl)piperazin-1-yl]-2,3-dihydro-1H-inden-5-yl}phenyl)methoxy]cyclopentyl}-5-(1-methyl-1H-pyrazol-4-yl)pyridine-3-carboxamide]
< 10 nM | < 10 nM | 100 to 1000 nM | Nc1ncc(-c2cccnc2F)cc1C(=O)N[C@H]1CCC[C@@H]1OCc1ccc(-c2ccc3c(c2)OCCC3N2CCN(CCO)CC2)cc1 (stereo partly drawn) [Example 134, 6-amino-2′-fluoro-N-{(1S,2S)-2-[(4-{4-[4-(2-hydroxyethyl)piperazin-1-yl]-3,4-dihydro-2H-1-benzopyran-7-yl}phenyl)methoxy]cyclopentyl}[3,3′-bipyridine]-5-carboxamide]
< 10 nM | < 10 nM | 10 to 100 nM | Cn1cc(-c2cnc(N)c(C(=O)N[C@H]3CCC[C@@H]3OCc3ccc(-c4ccc5c(c4)CCCC5N4CCNCC4)cc3)c2)cn1 (stereo partly drawn) [Example 122, 2-amino-5-(1-methyl-1H-pyrazol-4-yl)-N-[(1S,2S)-2-({4-[5-(piperazin-1-yl)-5,6,7,8-tetrahydronaphthalen-2-yl]phenyl}methoxy)cyclopentyl]pyridine-3-carboxamide]
